Assay results reported in publication PMC4115230, “Lipid–Protein Nanodiscs Offer New Perspectives for Structural and Functional Studies of Water-Soluble Membrane-Active Peptides” (Acta Naturae, 2014).
“Also recorded” adds a separate entry of the source. Where no end group is shown, it is not given here.

How the values were obtained:
[1] = ref [31]; cited from earlier work
Description: (§1) The VSTx1 toxin is a small β-structured peptide stabilized by three disulfide bonds which form a “cysteine knot” (Fig. 1). […] According to current data, VSTx1 inhibits the voltage-dependent activation of K^+ channels and uses “membrane catalysis” mechanisms when forming a complex with the voltage-sensing domain of the channel.

[2] = test system: K^+ channels; conditions: ref [3]; cited from earlier work
Description: as §1

[3] = test system: LPNs; experiment: Gel filtration analysis of LPNs after peptide addition (nanodisc integrity, particle size); type: physicochemical; conditions: for nanodisc disruption: 1 mM EDTA, pH 7.4, 280 nm
Method: was carried out on a Superdex-200 resin using a Tricorn 5/200 column (GE Healthcare, Sweden) in buffer (10 mM Tris-HCl, 0.1 M NaCl, 1 mM EDTA, 1 mM NaN3, pH 7.4). Thyroglobulin (669 kDa, Stokes radius RH = 8.5 nm), ferritin (440 kDa, RH = 6.1 nm), catalase (232 kDa, RH = 5.22 nm), aldolase (158 kDa, RH = 4.81 nm) BSA (67 kDa, RH = 3.55 nm), and ovalbumin (43 kDa, RH = 3.05 nm) were used as calibration proteins. The flow rate through the column was 0.3 ml/min. Detection was performed at 280 nm. The particle size was determined from the elution volume vs the lgRH calibration curve. All the particle size (diameter) values provided below correspond to twice RH values. ;

[4] = test system: nanodisc surface or MSP molecule; experiment: Langmuir analysis of VSTx1 binding to sites on nanodisc surface or MSP; conditions: Langmuir isotherm (eq. 2); range over LPN/POPC, LPN/POPC/DOPG and MSP
Method: (§2) To measure the isotherms of the toxins binding to LPNs and MSP molecules, the VSTx1 and NT II samples ([…], 10 mM Tris-Ac, pH 7.0) were titrated with solutions of nanodiscs (70 μM) of various lipid compositions or with a MSP solution (0.7 mM). The 1D 1H-NMR spectrum was acquired at each point. A data analysis was performed assuming that the intensity of the observed NMR signals of a peptide is proportional to its equilibrium concentration in solution ([P]free). The binding curves were fitted either to the partition equilibrium equation (1) or to the Langmuir isotherm equation (2), taking into account the dilution of the initial samples upon titration:
(§3) where [LPN/lipid] is the LPN concentration (assuming that one nanodisc contains two MSP molecules) or the lipid concentration (assuming that one nanodisc contains 150 lipid molecules), [P]boundis the concentration of a peptide bound to LPN ([P]0 = [P]free+ [P]bound), Kpis the partition coefficient, n is the number of binding sites for a peptide on the nanodisc surface, and Knis the affinity constant of the peptide to the binding site on the nanodisc surface.

[5] = test system: MSP (44-243 fragment of human apolipoprotein A1); experiment: NMR titration binding isotherm with MSP
Method: (§4) The recombinant 44–243 fragment of the human apolipoprotein A1 with a N-terminal sequence of six His residues was used as an MSP protein. The purified MSP protein, obtained as described in [20], was mixed at a molar ratio of 1 : 75 with lipids in the presence of a detergent, sodium cholate (2 : 1 cholate/lipids molar ratio), and the mixture was incubated at 4 °C for 3 h. When using saturated lipids (DLPC, DLPG), the reaction temperature was kept not lower than 25 °C. Spontaneous LPN assembly was initiated by detergent sorption to the Bio-Beads™ resin (Bio-Rad, USA) for 1.5 h. Purification of the nanodiscs was performed on a Ni^2+ Sepharose 6 Fast Flow resin (GE Healthcare, USA) equilibrated with buffer A (20 mM Tris-HCl, 0.5 M NaCl, 1 mM NaN3, pH 8.0). After loading the reaction mixture, the resin was washed with a fivefold volume of buffer A. LPNs were eluted with buffer A containing 100 mM imidazole. The MSP concentration was determined spectrophotometrically by absorbance at λ = 280 nm. The LPN concentration was determined by assuming that each nanodisc contained two MSP molecules.
(§5) NMR spectra were acquired at 40–45 °C on AVANCE -700 and AVANCE -III-800 spectrometers (Bruker, Germany) equipped with cryogenically cooled triple-resonance probes at the proton resonance frequencies of 700 and 800 MHz, respectively.
as §2, §3

[6] = test system: LPN/POPC/DOPG (3 : 1); experiment: NMR titration binding isotherm with LPN/POPC/DOPG (3 : 1) nanodiscs
Method: as §4, §5, §2, §3

[7] = buffer containing 150 mM KCl; ref [3]; cited from earlier work
Description: These differences in the toxin affinity may b ...

[8] = test system: LPN/POPC; experiment: NMR titration binding isotherm with LPN/POPC nanodiscs
Method: as §4, §5, §2, §3

[9] = test system: LPNs; conditions: ref [12], [15], [20]; cited from earlier work
Description: (§6) Given that the mechanisms associated with the change in the local curvature of the lipid bilayer (“toroidal” pore formation, bilayer micellization) underlie the action of the overwhelming majority of water- soluble cationic AMPs, we can assume that many of these molecules will have a destructive effect on LPNs. Thus, nanodiscs are probably not suited as a medium for studying these peptides. It should be noted that there are other classes of channel- and pore-forming biomolecules that can be studied in LPN-based media.

[10] = ref [12], [15], [20]; cited from earlier work
Description: as §6

[11] = Mean Kyte-Doolittle hydrophobicity index; conditions: among the three studied peptides
Description: The problems related to the application of LPNbased membrane mimetic media in structural and biophysical studies of water-soluble MPs have yet to be studied. It should be noted that this is far from being a trivial matter, since LPNs, unlike vesicles, bicelles, and micelles, contain an additional component, MSP, which is an anionic protein (charge of –6). In this paper, the interaction of water-soluble MPs with LPNs was studied using three model cationic β-structured peptides (Fig. 1), which have different physicochemical properties and represent three classes of membrane-active compounds. The antimicrobial peptide arenicin-2 (Ar2, 21 AA, 2772 Da, charge of +6, mean Kyte-Doolittle hydrophobicity index is –0.06, The maximum and minimum values of the Kyte-Doolittle hydrophobicity index are +4.5 and –4.5 for poly-Ile and poly-Arg sequences, respectively.) from coelomocytes of the polychaete lugworm Arenicola marina interacts selectively with membranes containing negatively charged lipid molecules and forms oligomeric pores in them. The VSTx1 toxin (34 AA, 4010 Da, charge of +3, hydrophobicity index is –0.27) from Grammostola spatulata spider venom uses the “membrane catalysis” mechanism to interact with the voltage-sensitive domains of K+-channels localized in the cell membrane, and it lacks pore-forming ability. […]

[12] = CD spectroscopy; ref [18], [21]; cited from earlier work
[13] = test system: LPNs; experiment: Opalescence/opacity of LPN solutions on Ar2 addition; type: physicochemical
Method: During that study, an aqueous Ar2 solution was added to nanodisc samples. […] An analysis of the sample supernatants by gel filtration confirmed this assumption. […] A similar process is known as high-density lipoprotein remodeling, which can occur both in vitro and in vivo upon the interaction of lipoprotein particles with lipophilic plasma proteins. Previously, nanodisc fusion had been observed in cell-free protein biosynthesis systems with the cotranslational incorporation of membrane proteins into LPNs containing unsaturated lipids. The spontaneous LPN fusion in vitro proceeds very slowly, but it could be considerably accelerated under denaturing conditions.

[14] = CD spectroscopy; ref [18], [21]; cited from earlier work; remark: listed apart in the source
[15] = cited from earlier work
Description: The cationic AMP, Ar2, contains mainly positively charged and hydrophobic residues and has a β-hairpin structure in water, which is stabilized with one disulfide bond (Fig. 1). […] As expected, the β-hairpins of individual peptides within the pore have a transmembrane orientation, so that the ...

[16] = Superdex-200, 10 mM Tris-HCl, 0.1 M NaCl
[17] = Langmuir isotherm (eq. 2), 10 mM Tris-Ac, pH 7.0, 40–45 °C
[18] = maximum ("up to"), Langmuir isotherm
[19] = partition equilibrium (eq. 1), lipid concentration as non-aqueous phase (150 lipids per nanodisc), 10 mM Tris-Ac, pH 7.0, 40–45 °C, no added salt

In the case of “VSTx1 (GSECGKFMWKCKNSNDCCKDLVCSSRWKWCVLASPF; not fully specified; ends and bridges not checked)”, the “affinity for interface of phospholipid membranes containing anionic lipids” value [1] is given as “considerable affinity”, the “interaction with zwitterionic lipid membranes” value [1] is given as “weakly interacts” and the membrane lytic activity [1] is given as “no membrane lytic activity”. The “voltage-dependent activation of K^+ channels” value [2] was “inhibits”, the nanodisc disruption [3, 16] was “does not cause their disruption; also recorded: no nanodisc disruption” and the “diameter of unbound toxin” value ([3]; Superdex-200, 10 mM Tris-HCl, 0.1 M NaCl, pH 7.4, diameter = 2 RH) was ~ 2.0 nm. For the same substance, the “Kn, affinity to the sites on the nanodisc surface or on a MSP molecule” value [4] was 50000 to 130000 M⁻¹, the “interaction with MSP” value ([5]; MSP without lipids, 1D 1H-NMR titration, 10 mM Tris-Ac, pH 7.0) was “weakly interacts; also recorded: weak interaction” and the “Kn, affinity constant of the peptide to the binding site” value ([5]; MSP×2, no lipids, Langmuir isotherm (eq. 2), 10 mM Tris-Ac, pH 7.0, 40–45 °C) was 0.05 ± 0.02 ×10^6·M^-1. The “Kp(LPN, MSP×2), partition coefficient” value ([5]; MSP×2, no lipids, partition equilibrium (eq. 1), titration with 0.7 mM MSP, 10 mM Tris-Ac, pH 7.0, 40–45 °C) was 0.10 ± 0.01 ×10^6·M^-1, the “VSTx1 molecules bound per MSP molecule” value ([5]; in the absence of lipids, each MSP molecule) was “up to 1.6 VSTx1 molecules” and the “Kn, affinity constant of the peptide to the binding site on the LPN surface” value [6, 17] was 0.13 ± 0.02 ×10^6·M^-1. For the same substance, the “n, number of binding sites on the LPN surface” value [6, 17] was 34.5 ± 3.9, the “binding to LPNs” value ([6]; POPC/DOPG, 3 : 1, 1D 1H-NMR titration, 10 mM Tris-Ac, pH 7.0) was “effectively binds; also recorded: interacts effectively with LPNs containing anionic lipids” and the “lipid molecules per toxin molecule” value ([6]; at ~ 35 binding sites per nanodisc) was ~ 4 lipid molecules per toxin molecule. The “number of binding sites with negatively charged lipids added” value [6, 18] was ~ 35, the “Kp(LPN, MSP×2), partition coefficient” value ([6]; partition equilibrium (eq. 1), LPN concentration as non-aqueous phase, 10 mM Tris-Ac, pH 7.0, 40–45 °C, no added salt) was 2.68 ± 0.24 ×10^6·M^-1 and the “Kp(Lipids), partition coefficient” value [6, 19] was 17.8 ± 1.6 ×10^3·M^-1. For the same substance, the “Kp, partition coefficient, vesicles of POPE/POPG (3 : 1)” value [7] was ~ 2 × 10^3 × 10^3 M^-1, the “Kn, affinity constant of the peptide to the binding site on the LPN surface” value [8, 17] was 0.06 ± 0.01 ×10^6·M^-1 and the “n, number of binding sites on the LPN surface” value [8, 17] was 9.6 ± 1.5. For the same substance, the “binding to LPNs” value ([8]; POPC, 1D 1H-NMR titration, 10 mM Tris-Ac, pH 7.0) was “lower affinity; also recorded: interacts less efficiently”, the “toxin molecules bound per nanodisc containing POPC (~ 150 molecules)” value [8, 18] was ~ 10 toxin molecules and the “Kp(LPN, MSP×2), partition coefficient” value ([8]; partition equilibrium (eq. 1), LPN concentration as non-aqueous phase, 1D 1H-NMR titration, 10 mM Tris-Ac, pH 7.0, 40–45 °C, no added salt) was 0.39 ± 0.02 ×10^6·M^-1. For the same substance, the “Kp(Lipids), partition coefficient” value [8, 19] was 2.6 ± 0.2 ×10^3·M^-1.
In the case of antiamoebin I, the “complex formation with LPNs” value [9] is given as “formation of stable complexes” and the “upper limit of solubility in water” value [10] is given as 30 µM.
In the case of “arenicin-2 (RWCVYAYVRIRGVLVRYRRCW; not fully specified; ends and bridges not checked; UniProt Q5SC59 182-202, looked up) [Ar2, antimicrobial peptide (21 AA) from coelomocytes of the polychaete lugworm Arenicola marina]”, the relative hydrophobicity [11] is given as “most hydrophobic among the studied peptides”, the “interaction with POPC vesicles/liposomes” value [12] is given as “does not interact” and the LPN solution turbidity ([13]; equimolar concentrations (Ar2/LPN = 1 : 1) and higher) is given as “opaque”. For the same substance, the LPN solution turbidity ([13]; small peptide concentrations added) was “strongly opalescent”, the “size of large complexes” value ([3]; Ar2/LPN sample supernatants, Superdex-200, pH 7.4, diameter = 2 RH) was ~ 15 nm and the nanodisc disruption [3, 16] was “causes nanodisc fusion, accompanied by the release of MSP molecules”. For the same substance, the nanodisc disruption ([3]; Superdex-200, 10 mM Tris-HCl, 0.1 M NaCl, listed as arenicin-2) was “disintegrates LPNs”, the “binding to DOPG liposomes” value [14] was “binds with high affinity” and the bilayer micellization ([15]; at high concentrations, ref [24]) was “probably causes bilayer micellization”. The “interaction with membranes containing negatively charged lipids” value ([15]; ref [18]) was “interacts selectively with membranes containing negatively charged lipid molecules and creates in them oligomeric pores”.
